Type in all cases: cell-based
One assay deals with HeLa (cervical cancer). The experiment in a line: Antiproliferative activity, CCK-8 cell viability. The settings on record: Homo sapiens, 72 h, read-out: Inhibition of Cancerous Cells, HELA; for inhibition at 3.3 µM: compound concentration of 3.3 μM; for inhibition at 10 µM: compound concentration of 10 μM; for inhibition at 30 µM: compound concentration of 30 μM.
The next assay has as its system SW480 (colon cancer). The experiment in a line: Antiproliferative activity, CCK-8 cell viability. The settings on record: Homo sapiens, 72 h, read-out: Inhibition of Cancerous Cells, SW480; for inhibition at 3.3 µM: compound concentration of 3.3 μM; for inhibition at 10 µM: compound concentration of 10 μM; for inhibition at 30 µM: compound concentration of 30 μM. The essentials:
(§1)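 Cells in DMEM with 10% FBS were treated with compound at 3.3, 10 or 30 μM for 72 h at 37°C. Viability was read by CCK-8 absorbance at 450 nm and expressed relative to DMSO-treated cells. Growth inhibition was binned as ≥50%, 30–50% or <30%.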

Assay [1] relates to MDA-MB-231 (breast cancer). Nature of the assay: Antiproliferative activity, CCK-8 cell viability. The following applies: Homo sapiens, 72 h, read-out: Inhibition of Cancerous Cells, MDA-MB-231; for inhibition at 3.3 µM: compound concentration of 3.3 μM; for inhibition at 10 µM: compound concentration of 10 μM; for inhibition at 30 µM: compound concentration of 30 μM. The essentials: as §1

In a further assay the test system is HepG2 (liver cancer). Nature of the assay: Antiproliferative activity, CCK-8 cell viability. The settings on record: Homo sapiens, 72 h, read-out: Inhibition of Cancerous Cells, HepG2; for inhibition at 3.3 µM: compound concentration of 3.3 μM; for inhibition at 10 µM: compound concentration of 10 μM; for inhibition at 30 µM: compound concentration of 30 μM. In a few lines: as §1

In assay [2] the test system is B16F10 (malignant melanoma). The experiment in a line: Antiproliferative activity, CCK-8 cell viability. The following applies: Mus musculus, B16-F10, 72 h, read-out: Inhibition of Cancerous Cells, B16F10; for inhibition at 3.3 µM: compound concentration of 3.3 μM; for inhibition at 10 µM: compound concentration of 10 μM; for inhibition at 30 µM: compound concentration of 30 μM. The essentials: as §1

The subject of assay [3] is A549 (lung adenocarcinoma). Nature of the assay: Antiproliferative activity, CCK-8 cell viability. The settings on record: Homo sapiens, 72 h, read-out: Inhibition of Cancerous Cells, A549; for inhibition at 3.3 µM: compound concentration of 3.3 μM; for inhibition at 10 µM: compound concentration of 10 μM; for inhibition at 30 µM: compound concentration of 30 μM.
The test system of assay [4] is A431 (epidermoid carcinoma). The experiment in a line: Antiproliferative activity, CCK-8 cell viability. The following applies: Homo sapiens, A-431, 72 h, read-out: Inhibition of Cancerous Cells, A431; for inhibition at 3.3 µM: compound concentration of 3.3 μM; for inhibition at 10 µM: compound concentration of 10 μM; for inhibition at 30 µM: compound concentration of 30 μM. In a few lines:
as §1

In assay [5] the test system is alpha-smooth muscle actin (α-SMA). Nature of the assay: Inhibition of TGF-β induced expression of alpha-smooth muscle actin in CFSC cells (western blot). The following applies: compound at 10 μM, TGF-β (10 ng/mL), 24 hours. In a few lines: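 Rat CCl4-treated hepatic stellate (CFSC) cells in serum-free DMEM were given compound at 10 μM plus TGF-β 10 ng/mL for 24 h at 37 °C. α-SMA measured by western blot with β-actin, bands quantified densitometrically. Percent inhibition is the decrease in band intensity versus TGF-β alone.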
On the technique in general: A western blot detects proteins with antibodies after separation by electrophoresis.

The inhibition is the drop in the measured response relative to a control, in per cent. Regarding `CC1=C(CC(=O)O)c2cc(F)cc(F)c2/C1=C\c1cccc(Oc2ccccc2)c1` [Compound D20, 2-[(1Z)-5,7-Difluoro-1-(3-(phenoxy)benzylidene)-2-methyl-1H-inden-3-yl]-acetic acid], the inhibition at 3.3 µM in the assay on HeLa (cervical cancer) was less than 30%; in the assay on SW480 (colon cancer) it was not below 50%; in assay [1] it was 30 to 50%; in the assay on HepG2 (liver cancer), not below 50%; in assay [2] it was 30 to 50%; in assay [3], 30 to 50%. Further, in assay [4], the inhibition at 3.3 µM is less than 30%. For the same compound, the inhibition at 10 µM was less than 30% in the assay with HeLa (cervical cancer); not below 50% with SW480 (colon cancer); not below 50% in assay [1]; not below 50% in the assay with HepG2 (liver cancer); not below 50% in assay [2]; not below 50% in assay [3]. Also, the figures for the inhibition at 10 µM in assay [4] and in assay [5] were less than 30% and not below 80%, respectively. In addition, the inhibition at 30 µM (with HeLa (cervical cancer); in the assay with SW480 (colon cancer); in assay [1]; in the assay on HepG2 (liver cancer); in assay [2]; in assay [3]) was not below 50% each time. Also, the inhibition at 30 µM in assay [4] is not below 50%.

Consider `CC1=C(CC(=O)N(C)O)c2cc(F)ccc2/C1=C\c1cccc(Oc2ccccc2)c1` [Compound B5, (Z)-2-(5-Fluoro-2-methyl-1-(3-phenoxybenzylidene)-1H-inden-3-yl)-N-hydroxy-N-methylacetamide], for which the inhibition at 3.3 µM in the assay on HeLa (cervical cancer) is less than 30%; in the assay on SW480 (colon cancer), 30 to 50%; in assay [1] it was less than 30%; in the assay with HepG2 (liver cancer) it was not below 50%; in assay [2], 30 to 50%; in assay [3], 30 to 50%. For the same compound, the inhibition at 3.3 µM in assay [4] is not below 50%. Besides, the inhibition at 10 µM (in the assay on HeLa (cervical cancer); in the assay on SW480 (colon cancer); in assay [1]; with HepG2 (liver cancer); in assay [2]; in assay [3]) was not below 50% each time. Besides, the results for the inhibition at 10 µM in assay [4] and in assay [5] were not below 50% and 50 to 80%, respectively. Further, the inhibition at 30 µM (with HeLa (cervical cancer); with SW480 (colon cancer); in assay [1]; with HepG2 (liver cancer); in assay [2]; in assay [3]) was not below 50% each time. The inhibition at 30 µM in assay [4] is not below 50%.

In the case of `COc1cccc2c1C(CC(=O)O)=C(C)/C2=C/c1ccc(Oc2ccccc2)cc1` [Compound D28, 2-[(1Z)-4-Methoxy-1-(4-(phenoxy)benzylidene)-2-methyl-1H-inden-3-yl]-acetic acid], the inhibition at 3.3 µM in the assay with HeLa (cervical cancer) is less than 30%; with SW480 (colon cancer) it was not below 50%; in assay [1], 30 to 50%; in the assay on HepG2 (liver cancer), not below 50%; in assay [2] it was 30 to 50%; in assay [3], 30 to 50%. Also, the inhibition at 3.3 µM in assay [4] is not below 50%. For the same compound, the inhibition at 10 µM in the assay with HeLa (cervical cancer) is less than 30%; in the assay with SW480 (colon cancer) it was not below 50%; in assay [1] it was 30 to 50%; with HepG2 (liver cancer), not below 50%; in assay [2], not below 50%; in assay [3] it was 30 to 50%. Further, the figures for the inhibition at 10 µM in assay [4] and in assay [5] were not below 50% and 50 to 80%, respectively. Also, the inhibition at 30 µM in the assay on HeLa (cervical cancer) is less than 30%; with SW480 (colon cancer), not below 50%; in assay [1] it was not below 50%; in the assay with HepG2 (liver cancer), not below 50%; in assay [2], not below 50%; in assay [3], not below 50%. The inhibition at 30 µM in assay [4] was not below 50%.

On to `CC1=C(CC(=O)O)c2cc(F)ccc2/C1=C\c1cccc(COc2ccc(C(F)(F)F)cc2)c1` [Compound A21, 2-[(1Z)-5-Fluoro-2-methyl-1-[(3-{[4-(trifluoromethyl)phenoxy]methyl}phenyl)-methylidene]-1H-inden-3-yl]acetic acid], for which the inhibition at 3.3 µM in the assay with HeLa (cervical cancer) was 30 to 50%; with SW480 (colon cancer) it was not below 50%; in assay [1] it was not below 50%; in the assay with HepG2 (liver cancer), 30 to 50%; in assay [2], not below 50%; in assay [3], 30 to 50%. The inhibition at 3.3 µM in assay [4] lay within 30 to 50%. Further, the inhibition at 10 µM in the assay on HeLa (cervical cancer) is 30 to 50%; in the assay on SW480 (colon cancer), not below 50%; in assay [1] it was not below 50%; with HepG2 (liver cancer) it was 30 to 50%; in assay [2], not below 50%; in assay [3], 30 to 50%. The inhibition at 10 µM in assay [4] was not below 50%; in assay [5], less than 30%. The inhibition at 30 µM (with HeLa (cervical cancer); in the assay with SW480 (colon cancer); in assay [1]; in the assay with HepG2 (liver cancer); in assay [2]; in assay [3]) was not below 50% each time. Also, the inhibition at 30 µM in assay [4] was not below 50%.

Turning to `CC1=C(CC(=O)O)c2cc(F)ccc2/C1=C\c1ccccc1Oc1ccccc1` [Compound D19, 2-[(1Z)-5-Fluoro-1-(2-(phenoxy)benzylidene)-2-methyl-1H-inden-3-yl]-acetic acid], the inhibition at 3.3 µM with HeLa (cervical cancer) is 30 to 50%; with SW480 (colon cancer), not below 50%; in assay [1] it was less than 30%; with HepG2 (liver cancer) it was not below 50%; in assay [2], less than 30%; in assay [3], 30 to 50%. Also, the inhibition at 3.3 µM in assay [4] is not below 50%. In addition, the inhibition at 10 µM in the assay on HeLa (cervical cancer) is not below 50%; in the assay on SW480 (colon cancer), not below 50%; in assay [1], less than 30%; with HepG2 (liver cancer), not below 50%; in assay [2] it was 30 to 50%; in assay [3], not below 50%. The inhibition at 10 µM was not below 50% in assay [4] and less than 30% in assay [5]. Also, the inhibition at 30 µM (with HeLa (cervical cancer); in the assay with SW480 (colon cancer); in assay [1]; in the assay on HepG2 (liver cancer); in assay [2]; in assay [3]) was not below 50% in each case. In assay [4], the inhibition at 30 µM was not below 50%.

For the compound `CC1=C(CC(=O)O)c2cc(F)cc(F)c2/C1=C/c1ccc(Oc2ccc(F)cc2)cc1` [Compound E4, 2-[(1E)-5,7-Difluoro-2-methyl-1-({4-[4-fluorophenoxy]phenyl}methylidene)-1H-inden-3-yl]acetic acid], the inhibition at 3.3 µM in the assay with HeLa (cervical cancer) is 30 to 50%; in the assay on SW480 (colon cancer), less than 30%; in assay [1], not below 50%; in the assay on HepG2 (liver cancer), not below 50%; in assay [2], not below 50%; in assay [3], less than 30%. Besides, in assay [4], the inhibition at 3.3 µM is less than 30%. Further, the inhibition at 10 µM was not below 50% in the assay on HeLa (cervical cancer); not below 50% in the assay on SW480 (colon cancer); not below 50% in assay [1]; not below 50% with HepG2 (liver cancer); not below 50% in assay [2]; 30 to 50% in assay [3]. Further, the inhibition at 10 µM in assay [4] was not below 50%; in assay [5] it was not below 80%. The inhibition at 30 µM (in the assay on HeLa (cervical cancer); with SW480 (colon cancer); in assay [1]; in the assay with HepG2 (liver cancer); in assay [2]; in assay [3]) was not below 50% each time. Besides, the inhibition at 30 µM in assay [4] is not below 50%.

Values taken from patent publication US20240116845A1, “INDENE COMPOUNDS, PHARMACEUTICAL COMPOSITIONS THEREOF, AND THEIR THERAPEUTIC APPLICATIONS” (NucMito Pharmaceuticals Co., Ltd., priority 2021, published 2024).
